Results on 19 compounds are retold here after ChEMBL document CHEMBL3865844, “Synthesis of 3,5-dihydroxy-7,8-dimethoxy-2-(4-methoxyphenyl)benzopyran-4-one derivatives as anticancer agents” (Bioorg Med Chem Lett, 2016).

Molecules are shown by their SMILES. The source made the active and inactive calls. No cut-off for these calls is given here.

The nature of data set [1]: Anticancer activity against human DU145 cells measured after 48 hrs by SRB assay. In kind it is functional, cell-based. The conditions noted are these: DU-145, 48 h. For orientation: In SRB staining, fixed cells bind dye roughly in proportion to their protein.
A short description of data set [2]: Anticancer activity against human ER-positive MCF7 cells measured after 48 hrs by SRB assay. The class given is functional, cell-based. The conditions noted are these: MCF7, 48 h.
Data set [3] can be described thus: Anticancer activity against human A549 cells measured after 48 hrs by SRB assay. The class given is functional, cell-based. The conditions noted are these: A549, 48 h.
Data set [4] in a line: Anticancer activity against human FADU cells measured after 48 hrs by SRB assay. The class given is functional, cell-based.
Data set [5] can be described thus: Anticancer activity against human DLD1 cells measured after 48 hrs by SRB assay. The class given is functional, cell-based. The conditions noted are these: DLD-1, 48 h.
Data set [6] is described as follows: Cytotoxicity against human THP1 cells by MTT assay. In kind it is toxicity, cell-based, THP-1. Background: Formazan colour is commonly taken as a measure of viable cells.
Data set [7] can be described thus: Inhibition of tubulin depolymerization (unknown origin) measured up to 60 mins. Further details: species or system Homo sapiens.
Data set [8] is described as follows: Cell cycle arrest in human ER-positive MCF7 cells assessed as accumulation at G2M phase at 7.2 and 14.93 uM by propidium iodide staining based flow cytometry relative to vehicle control. The class given is functional. The conditions noted are these: TDE = time-dependent effect. On the technique in general: A flow cytometer gives signals particle by particle.

Data set [9] in a line: Cell cycle arrest in human ER-positive MCF7 cells assessed as decrease in S-phase cell population at 7.2 and 14.93 uM after 24 hrs by propidium iodide staining based flow cytometry relative to vehicle control. The class given is functional.
The next data set deals with MCF7. Description: Induction of apoptosis in human ER-positive MCF7 cells assessed as PARP cleavage at 2.5 to 10 uM by Western blot analysis. In kind it is functional, cell-based. The conditions noted are these: TDE = time-dependent effect.
Data set [10] can be described thus: Cell cycle arrest in human ER-positive MCF7 cells assessed as accumulation at sub-G0 phase at 7.2 and 14.93 uM by propidium iodide staining based flow cytometry relative to vehicle control. The conditions noted are these: TDE = time-dependent effect. The class given is functional.

On to `CC/C(=C(\c1ccccc1)c1ccc(OCCN(C)C)cc1)c1ccccc1` [TAMOXIFEN], for which the concentration for half-maximal inhibition (IC50) – broadly, the concentration needed to halve the response being measured – in [1] turned out to be 18.1 µM; in [2] it was 18.2 µM; in data set [3] it was 17.3 µM; in data set [4], 5.39 µM; in data set [5], 11.1 µM.
As to `COc1ccc(-c2oc3c(OC)c(OC)cc(OCCCCC(=O)NCc4ccccn4)c3c(=O)c2O)cc1`, the half-inhibitory concentration (IC50) in data set [1], in data set [2], in [3], in [4] and in data set [5] was greater than 40 µM in each case.
With `COc1ccc(-c2oc3c(OC)c(OC)cc(OCCCCCC(=O)NCCc4ccccn4)c3c(=O)c2O)cc1`, the 50% inhibitory concentration (IC50) in [1], in data set [2], in [3], in data set [4] and in data set [5] was greater than 40 µM each time.
Take `CCCCCN(C)C(=O)CCCCCOc1cc(OC)c(OC)c2oc(-c3ccc(OC)cc3)c(O)c(=O)c12`: the IC50 in [1] was 22.5 µM; in data set [2], 34.9 µM; in data set [3], 17.2 µM; in data set [4], greater than 40 µM; in data set [5] it was 19.4 µM. Besides, the CC50 (in general, the concentration at which the toxic effect on the cells reaches its halfway point) in data set [6] stood at 200 µM.
As to `COc1ccc(-c2oc3c(OC)c(OC)cc(OCCCCCC(=O)N4CCN(C)CC4)c3c(=O)c2O)cc1`, the half-inhibitory concentration (IC50) in data set [1] came to 13.2 µM; in data set [2] it was 14.1 µM; in data set [3] it was 14.8 µM; in [4], 15.8 µM; in [5], 13.7 µM. Moreover, the concentration giving a half-maximal response (EC50) – broadly, the midpoint of the concentration-response curve – in data set [7] was found to be 5.25 µM. Besides, the 50% cytotoxic concentration (CC50) in [6] came out at 50 µM.
With `CCCCN(C)C(=O)CCCOc1cc(OC)c(OC)c2oc(-c3ccc(OC)cc3)c(O)c(=O)c12`, the IC50 in data set [1], in data set [2], in data set [3], in [4] and in data set [5] was greater than 40 µM each time. The EC50 in [7] was 3.4 µM.
As for `CCN(CC)CCOc1cc(OC)c(OC)c2oc(-c3ccc(OC)cc3)c(O)c(=O)c12`, the IC50 in [1] amounted to 11.3 µM; in data set [2], 25.1 µM; in [3], 13.8 µM; in data set [4], 12.8 µM; in [5] it was 7.81 µM. The compound further gave a half-maximal cytotoxic concentration (CC50) in data set [6] of 200 µM.
In the case of `CCCCN(C)C(=O)CCCCOc1cc(OC)c(OC)c2oc(-c3ccc(OC)cc3)c(O)c(=O)c12`, the 50% inhibitory concentration (IC50) came out at 10.8 µM in data set [1]; 22.3 µM in data set [2]; 16.7 µM in data set [3]; 22 µM in [4]; 17.4 µM in [5]. This compound came in with a CC50 in data set [6] of 200 µM.
With `COc1ccc(-c2oc3c(OC)c(OC)cc(OCCCC(=O)NCc4ccccn4)c3c(=O)c2O)cc1`, the IC50 in [1], in data set [2], in [3], in data set [4] and in data set [5] was greater than 40 µM throughout.
For `COc1ccc(-c2oc3c(OC)c(OC)cc(OC(C)CN(C)C)c3c(=O)c2O)cc1` (stereo unspecified), the IC50 amounted to 4.38 µM in [1]; 7.2 µM in data set [2]; 6.12 µM in [3]; 5.41 µM in data set [4]; 2.56 µM in [5]. The Activity result (in data set [8]; with MCF7; in data set [10]) was “Tde” in each case. The EC50 in [7] came to 25.1 µM. Besides, the outcome in data set [9] was Active. This compound also came in with a CC50 in data set [6] of 100 µM.
For the compound `COc1ccc(-c2oc3c(OC)c(OC)cc(OCCCCC(=O)N4CCN(C)CC4)c3c(=O)c2O)cc1`, the IC50 in data set [1], in data set [2], in data set [3], in [4] and in data set [5] was greater than 40 µM throughout.
In data set [7], `CC(=O)O[C@H]1C(=O)[C@@]2(C)[C@H]([C@H](OC(=O)c3ccccc3)[C@]3(O)C[C@H](OC(=O)[C@H](O)[C@@H](NC(=O)c4ccccc4)c4ccccc4)C(C)=C1C3(C)C)[C@]1(OC(C)=O)CO[C@@H]1C[C@@H]2O` [PACLITAXEL] showed a 50% effective concentration (EC50) of 0.97 µM.
For the compound `COc1ccc(-c2oc3c(OC)c(OC)cc(OCCN4CCCCC4)c3c(=O)c2O)cc1`, the concentration for half-maximal inhibition (IC50) turned out to be 6.55 µM in [1]; 11.9 µM in data set [2]; 10.3 µM in data set [3]; 9.96 µM in data set [4]; 4.56 µM in [5]. This compound also yielded a cytotoxic concentration (CC50) in data set [6] of 100 µM.
Consider `COc1ccc(-c2oc3c(OC)c(OC)cc(OCCN4CCCC4)c3c(=O)c2O)cc1`, for which the 50% inhibitory concentration (IC50) in [1] came to 7.07 µM; in data set [2], 14.9 µM; in data set [3], 11.1 µM; in data set [4], 9.79 µM; in [5], 17.4 µM. Moreover, the CC50 in [6] stood at 100 µM.
For `COc1ccc(-c2oc3c(OC)c(OC)cc(OCCCC(=O)NCCc4ccccn4)c3c(=O)c2O)cc1`, the IC50 in [1], in data set [2], in [3], in data set [4] and in data set [5] was greater than 40 µM each time.
`COc1ccc(-c2oc3c(OC)c(OC)cc(OCCCCC(=O)NCCc4ccccn4)c3c(=O)c2O)cc1`: the IC50 in data set [1], in data set [2], in [3], in data set [4] and in data set [5] was greater than 40 µM each time.
Take `COc1ccc(-c2oc3c(OC)c(OC)cc(OCCN(C)C)c3c(=O)c2O)cc1`: the 50% inhibitory concentration (IC50) in data set [1] came out at 6.03 µM; in data set [2], 12.9 µM; in [3] it was 7.17 µM; in [4], 10.9 µM; in data set [5] it was 4.44 µM. This compound displayed a CC50 in [6] of 200 µM.
In the case of `COc1ccc(-c2oc3c(OC)c(OC)cc(OCCCCCC(=O)NCc4ccccn4)c3c(=O)c2O)cc1`, the half-inhibitory concentration (IC50) in [1], in [2], in data set [3], in data set [4] and in data set [5] was greater than 40 µM each time.
Take `COc1ccc(-c2oc3c(OC)c(OC)cc(OCCCC(=O)N4CCN(C)CC4)c3c(=O)c2O)cc1`: the half-inhibitory concentration (IC50) in [1], in data set [2], in data set [3], in data set [4] and in [5] was greater than 40 µM throughout.
